Values after ≈ are worked out from the molar mass of the structure shown.
Columns and labels:
Format in all cases: cell-based
[1] = system: Staphylococcus aureus FDA 209PJc-1; experiment: Antibacterial activity, agar-dilution MIC, organism No. 1; settings: Staphylococcus aureus, FDA209PJC1; Organism No. 1, bouillon-agar; read-out: Minimum Inhibitory Concentration
Text: (§1) Agar-dilution method was used for determination of the antibacterial activity and antifungal activity while using bouillon-agar culture medium, and the minimum inhibitory concentration of the specimen was expressed by μg/ml of the culture medium.

[2] = system: Staphylococcus aureus Terajima; experiment: Antibacterial activity, agar-dilution MIC, organism No. 2; settings: Staphylococcus aureus; Organism No. 2, bouillon-agar; read-out: Minimum Inhibitory Concentration
Text: as §1

[3] = system: Salmonella shottmuelleri 8006; experiment: Antibacterial activity, agar-dilution MIC, organism No. 11; settings: Salmonella, 8006; Organism No. 11, bouillon-agar; read-out: Minimum Inhibitory Concentration
Text: as §1

[4] = system: Enterobacter aerogenes ATCC 13048; experiment: Antibacterial activity, agar-dilution MIC, organism No. 23; settings: Klebsiella aerogenes, ATCC13048; Organism No. 23, bouillon-agar; read-out: Minimum Inhibitory Concentration
Text: as §1

Enterobacter cloacae 963 = experiment: Antibacterial activity, agar-dilution MIC, organism No. 24; settings: Enterobacter cloacae, 963; Organism No. 24, bouillon-agar; read-out: Minimum Inhibitory Concentration
Text: as §1

[5] = system: Salmonella paratyphi-A 1015; experiment: Antibacterial activity, agar-dilution MIC, organism No. 10; settings: Salmonella enterica, PARATYPHI, read-out: Minimum Inhibitory Concentration
Text: as §1

[6] = system: Streptococcus pyogenes Cook; experiment: Antibacterial activity, agar-dilution MIC, organism No. 4; settings: Streptococcus pyogenes; Organism No. 4, bouillon-agar; read-out: Minimum Inhibitory Concentration
Text: as §1

[7] = system: Bacillus subtilis ATCC 6633; experiment: Antibacterial activity, agar-dilution MIC, organism No. 14; settings: Bacillus subtilis, ATCC6633; Organism No. 14, bouillon-agar; read-out: Minimum Inhibitory Concentration
Text: as §1

[8] = system: Aspergillus niger IFO 6342; experiment: Antifungal activity, agar-dilution MIC, organism No. 30; settings: Aspergillus niger, IFO6342; Organism No. 30, bouillon-agar; read-out: Minimum Inhibitory Concentration
Text: as §1

[9] = system: Proteus mirabilis IFO 3849; experiment: Antibacterial activity, agar-dilution MIC, organism No. 19; settings: Proteus mirabilis, IFO3849; Organism No. 19, bouillon-agar; read-out: Minimum Inhibitory Concentration
Text: as §1

[10] = system: Pseudomonas aeruginosa NCTC 10490; experiment: Antibacterial activity, agar-dilution MIC, organism No. 16; settings: Pseudomonas aeruginosa, NCTC10490; Organism No. 16, bouillon-agar; read-out: Minimum Inhibitory Concentration
Text: as §1

[11] = system: Pseudomonas aeruginosa PAO 1; experiment: Antibacterial activity, agar-dilution MIC, organism No. 17; settings: Pseudomonas aeruginosa, PAO1; Organism No. 17, bouillon-agar; read-out: Minimum Inhibitory Concentration
Text: as §1

[12] = system: Streptococcus pyogenes IFO 3340; experiment: Antibacterial activity, agar-dilution MIC, organism No. 26; settings: Streptococcus pyogenes, IFO3340; Organism No. 26, bouillon-agar; read-out: Minimum Inhibitory Concentration
Text: as §1

[13] = system: Micrococcus luteus ATCC 9341; experiment: Antibacterial activity, agar-dilution MIC, organism No. 25; settings: Micrococcus luteus, ATCC9341; Organism No. 25, bouillon-agar; read-out: Minimum Inhibitory Concentration
Text: as §1

[14] = system: Proteus morganii IFO 3848; experiment: Antibacterial activity, agar-dilution MIC, organism No. 18; settings: Morganella morganii, IFO3848; Organism No. 18, bouillon-agar; read-out: Minimum Inhibitory Concentration
Text: as §1

[15] = system: Staphylococcus aureus MS 353; experiment: Antibacterial activity, agar-dilution MIC, organism No. 3; settings: Staphylococcus aureus, MS353; Organism No. 3, bouillon-agar; read-out: Minimum Inhibitory Concentration
Text: as §1

Proteus vulgaris HX-19 = experiment: Antibacterial activity, agar-dilution MIC, organism No. 21; settings: Proteus vulgaris, HX19; Organism No. 21, bouillon-agar; read-out: Minimum Inhibitory Concentration
Text: as §1

Proteus vulgaris OX-19 = experiment: Antibacterial activity, agar-dilution MIC, organism No. 20; settings: Proteus vulgaris, OX19; Organism No. 20, bouillon-agar; read-out: Minimum Inhibitory Concentration
Text: as §1

[16] = system: Salmonella enteritidis G 14; experiment: Antibacterial activity, agar-dilution MIC, organism No. 12; settings: Salmonella enterica, ENTERITIDIS; Organism No. 12, bouillon-agar; read-out: Minimum Inhibitory Concentration
Text: as §1

Salmonella typhi 901 = experiment: Antibacterial activity, agar-dilution MIC, organism No. 9; settings: Salmonella enterica, TYPHI, read-out: Minimum Inhibitory Concentration
Text: as §1

[17] = system: Salmonella typhimurium IID 971; experiment: Antibacterial activity, agar-dilution MIC, organism No. 8; settings: Salmonella enterica; Organism No. 8, bouillon-agar; read-out: Minimum Inhibitory Concentration
Text: as §1

[18] = system: Proteus rettgeri IFO 3850; experiment: Antibacterial activity, agar-dilution MIC, organism No. 22; settings: Providencia rettgeri, IFO3850; Organism No. 22, bouillon-agar; read-out: Minimum Inhibitory Concentration
Text: as §1

[19] = system: Klebsiella pneumoniae PCI-602; experiment: Antibacterial activity, agar-dilution MIC, organism No. 7; settings: Klebsiella pneumoniae, PCI602; Organism No. 7, bouillon-agar; read-out: Minimum Inhibitory Concentration
Text: as §1

[20] = system: Streptococcus faecium IFO 3826; experiment: Antibacterial activity, agar-dilution MIC, organism No. 27; settings: Enterococcus faecium, IFO3826; Organism No. 27, bouillon-agar; read-out: Minimum Inhibitory Concentration
Text: as §1

[21] = system: Escherichia coli NIHJ-JC-2; experiment: Antibacterial activity, agar-dilution MIC, organism No. 5; settings: Escherichia coli, NIHJJC2; Organism No. 5, bouillon-agar; read-out: Minimum Inhibitory Concentration
Text: as §1

[22] = system: Candida albicans IAM 4905; experiment: Antifungal activity, agar-dilution MIC, organism No. 29; settings: Candida albicans, IAM4905; Organism No. 29, bouillon-agar; read-out: Minimum Inhibitory Concentration
Text: as §1

[23] = system: Mycoplasma pneumoniae IID817; experiment: Antimycoplasmal activity, MIC by phenol red colour change, organism No. 28; settings: Mycoplasma, IID817; Organism No. 28, PPLO broth + 1% glucose, 37° C.; read-out: Minimum Inhibitory Concentration (MIC)
Method: Mycoplasma pneumoniae IID817 was used as the test microorganism in a culture medium prepared by adding 1% of glucose to "PPLO broth (manufactured by Difco Co.) liquid culture medium" at 37° C. with phenol red as an indicator, thereby culturing the test microorganism.

[24] = system: Pseudomonas aeruginosa IFO 3445; experiment: Antibacterial activity, agar-dilution MIC, organism No. 15; settings: Pseudomonas aeruginosa, IFO3445; Organism No. 15, bouillon-agar; read-out: Minimum Inhibitory Concentration
Text: as §1

[25] = system: Escherichia coli K12 C600 IAM 1264; experiment: Antibacterial activity, agar-dilution MIC, organism No. 6; settings: Escherichia coli, IAM1264; Organism No. 6, bouillon-agar; read-out: Minimum Inhibitory Concentration
Text: as §1

[C-]#[N+]C12CC3(/C=C/C(=O)Nc4ccc(F)cc4)OC3C1O2 (stereo not drawn) [compound 43]
MIC [1]: 0.78 µg/mL (≈ 2.72 µM)
MIC [2]: 3.13 µg/mL (≈ 10.9 µM)
MIC [3]: 0.78 µg/mL (≈ 2.72 µM)
MIC [4]: > 200 µg/mL
MIC (Enterobacter cloacae 963): 12.5 µg/mL (≈ 43.7 µM)
MIC [5]: 0.78 µg/mL (≈ 2.72 µM)
MIC [6]: 25 µg/mL (≈ 87.3 µM)
MIC [7]: 6.25 µg/mL (≈ 21.8 µM)
MIC [8]: 1.56 µg/mL (≈ 5.45 µM)
MIC [9]: 12.5 µg/mL (≈ 43.7 µM)
MIC [10]: > 200 µg/mL
MIC [11]: > 200 µg/mL
MIC [12]: 3.13 µg/mL (≈ 10.9 µM)
MIC [13]: 0.2 µg/mL (≈ 0.699 µM)
MIC [14]: 0.39 µg/mL (≈ 1.36 µM)
MIC [15]: 1.56 µg/mL (≈ 5.45 µM)
MIC (Proteus vulgaris HX-19): 0.39 µg/mL (≈ 1.36 µM)
MIC (Proteus vulgaris OX-19): 0.39 µg/mL (≈ 1.36 µM)
MIC [16]: 3.13 µg/mL (≈ 10.9 µM)
MIC (Salmonella typhi 901): 1.56 µg/mL (≈ 5.45 µM)
MIC [17]: 6.25 µg/mL (≈ 21.8 µM)
MIC [18]: 1.56 µg/mL (≈ 5.45 µM)
MIC [19]: 0.78 µg/mL (≈ 2.72 µM)
MIC [20]: 12.5 µg/mL (≈ 43.7 µM)
MIC [21]: 6.25 µg/mL (≈ 21.8 µM)
MIC [22]: 0.39 µg/mL (≈ 1.36 µM)
MIC [23]: < 0.2 µg/mL
MIC [24]: > 200 µg/mL
MIC [25]: 25 µg/mL (≈ 87.3 µM)

[C-]#[N+]C12CC3(/C=C/C(=O)N[C@@H](CC(=O)OC)C(=O)OC)OC3C1O2 (stereo partly drawn) [Compound No. 27]
MIC [1]: 25 µg/mL (≈ 74.3 µM)
MIC [2]: 100 µg/mL (≈ 297 µM)
MIC [3]: 25 µg/mL (≈ 74.3 µM)
MIC [4]: > 200 µg/mL
MIC (Enterobacter cloacae 963): > 200 µg/mL
MIC [5]: 25 µg/mL (≈ 74.3 µM)
MIC [6]: 50 µg/mL (≈ 149 µM)
MIC [7]: 100 µg/mL (≈ 297 µM)
MIC [8]: > 100 µg/mL
MIC [9]: > 200 µg/mL
MIC [10]: > 200 µg/mL
MIC [11]: > 200 µg/mL
MIC [12]: 50 µg/mL (≈ 149 µM)
MIC [13]: 12.5 µg/mL (≈ 37.2 µM)
MIC [14]: 25 µg/mL (≈ 74.3 µM)
MIC [15]: 25 µg/mL (≈ 74.3 µM)
MIC (Proteus vulgaris HX-19): 12.5 µg/mL (≈ 37.2 µM)
MIC (Proteus vulgaris OX-19): 25 µg/mL (≈ 74.3 µM)
MIC [16]: 25 µg/mL (≈ 74.3 µM)
MIC (Salmonella typhi 901): 25 µg/mL (≈ 74.3 µM)
MIC [17]: 100 µg/mL (≈ 297 µM)
MIC [18]: > 200 µg/mL
MIC [19]: 25 µg/mL (≈ 74.3 µM)
MIC [20]: > 200 µg/mL
MIC [21]: 100 µg/mL (≈ 297 µM)
MIC [22]: 100 µg/mL (≈ 297 µM)
MIC [23]: > 100 µg/mL
MIC [24]: > 200 µg/mL
MIC [25]: 50 µg/mL (≈ 149 µM)

[C-]#[N+]C12CC3(/C=C/C(=O)N(C(=O)NC4CCCCC4)C4CCCCC4)OC3C1O2 (stereo not drawn) [Compound No. 25]
MIC [1]: 0.1 µg/mL (≈ 0.25 µM)
MIC [2]: 0.78 µg/mL (≈ 1.95 µM)
MIC [3]: 0.1 µg/mL (≈ 0.25 µM)
MIC [4]: > 100 µg/mL
MIC (Enterobacter cloacae 963): 50 µg/mL (≈ 125 µM)
MIC [5]: 0.1 µg/mL (≈ 0.25 µM)
MIC [6]: 1.56 µg/mL (≈ 3.9 µM)
MIC [7]: 0.39 µg/mL (≈ 0.976 µM)
MIC [8]: 6.25 µg/mL (≈ 15.6 µM)
MIC [9]: > 200 µg/mL
MIC [10]: > 100 µg/mL
MIC [11]: > 100 µg/mL
MIC [12]: 6.25 µg/mL (≈ 15.6 µM)
MIC [13]: < 0.05 µg/mL
MIC [14]: > 100 µg/mL
MIC [15]: 0.78 µg/mL (≈ 1.95 µM)
MIC (Proteus vulgaris HX-19): 0.1 µg/mL (≈ 0.25 µM)
MIC (Proteus vulgaris OX-19): 25 µg/mL (≈ 62.6 µM)
MIC [16]: 100 µg/mL (≈ 250 µM)
MIC (Salmonella typhi 901): 100 µg/mL (≈ 250 µM)
MIC [17]: 100 µg/mL (≈ 250 µM)
MIC [18]: > 200 µg/mL
MIC [19]: 100 µg/mL (≈ 250 µM)
MIC [20]: 6.25 µg/mL (≈ 15.6 µM)
MIC [21]: 12.5 µg/mL (≈ 31.3 µM)
MIC [22]: 3.13 µg/mL (≈ 7.83 µM)
MIC [23]: 1.56 µg/mL
MIC [24]: > 100 µg/mL
MIC [25]: 6.25 µg/mL (≈ 15.6 µM)

— patent publication US4684664A, “Derivatives of β-(4-isocyano-1,2,3,4-diepoxycyclopentyl) acrylic acid” (Kureha Kagaku Kogyo Kabushiki Kaisha, priority 1984, dated 1987)
